Test results published in patent US11066369B2, “N-(pyridin-2-yl)pyridine-sulfonamide derivatives and their use in the treatment of disease” (Novartis AG, priority 2016, dated 2021).
Like-named read-outs stand apart in the source and are kept apart here.

Biological target: T1, horseradish peroxidase (HRP) tagged delF508-CFTR (Homo sapiens, UniProt P13569, DEL508-508)
T1 construct: expressed in transfected cells
Test: Measurement of delF508-CFTR-HRP surface expression in CFBE41o- cells;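 on DelF508-CFTR-HRP Amax %: percent efficacy relative to reference corrector lumacaftor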
Type: cell-based
Conditions: for Emax: read-out: DelF508-CFTR-HRP Amax %
Summary of the method: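 Surface-trafficked delF508-CFTR detected via extracellular HRP tag, read as luminescence from a membrane-impermeant substrate in CFBE41o- cells. Cells pre-induced 48h with 500 ng/mL doxycycline, then exposed 24h at 37° C to a 10-point, 3-fold dilution series from 10 μM (DMSO ≤0.5%). Triplicate dose-responses fitted logistically for EC50 after per-plate normalization; fold change versus reference compound.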

[1] = delF508-CFTR-HRP surface expression, CFBE41o- cells
[2] = delF508-CFTR-HRP surface expression, CFBE41o- cells, read-out: DelF508-CFTR-HRP EC50
[3] = CFBE41o- cells, surface expression Amax
[4] = CFBE41o- cells, mean of at least two replicates, read-out: DelF508-CFTR-HRP EC50

T1 sequence (P13569 with tags, fused parts or gaps DEL508-508): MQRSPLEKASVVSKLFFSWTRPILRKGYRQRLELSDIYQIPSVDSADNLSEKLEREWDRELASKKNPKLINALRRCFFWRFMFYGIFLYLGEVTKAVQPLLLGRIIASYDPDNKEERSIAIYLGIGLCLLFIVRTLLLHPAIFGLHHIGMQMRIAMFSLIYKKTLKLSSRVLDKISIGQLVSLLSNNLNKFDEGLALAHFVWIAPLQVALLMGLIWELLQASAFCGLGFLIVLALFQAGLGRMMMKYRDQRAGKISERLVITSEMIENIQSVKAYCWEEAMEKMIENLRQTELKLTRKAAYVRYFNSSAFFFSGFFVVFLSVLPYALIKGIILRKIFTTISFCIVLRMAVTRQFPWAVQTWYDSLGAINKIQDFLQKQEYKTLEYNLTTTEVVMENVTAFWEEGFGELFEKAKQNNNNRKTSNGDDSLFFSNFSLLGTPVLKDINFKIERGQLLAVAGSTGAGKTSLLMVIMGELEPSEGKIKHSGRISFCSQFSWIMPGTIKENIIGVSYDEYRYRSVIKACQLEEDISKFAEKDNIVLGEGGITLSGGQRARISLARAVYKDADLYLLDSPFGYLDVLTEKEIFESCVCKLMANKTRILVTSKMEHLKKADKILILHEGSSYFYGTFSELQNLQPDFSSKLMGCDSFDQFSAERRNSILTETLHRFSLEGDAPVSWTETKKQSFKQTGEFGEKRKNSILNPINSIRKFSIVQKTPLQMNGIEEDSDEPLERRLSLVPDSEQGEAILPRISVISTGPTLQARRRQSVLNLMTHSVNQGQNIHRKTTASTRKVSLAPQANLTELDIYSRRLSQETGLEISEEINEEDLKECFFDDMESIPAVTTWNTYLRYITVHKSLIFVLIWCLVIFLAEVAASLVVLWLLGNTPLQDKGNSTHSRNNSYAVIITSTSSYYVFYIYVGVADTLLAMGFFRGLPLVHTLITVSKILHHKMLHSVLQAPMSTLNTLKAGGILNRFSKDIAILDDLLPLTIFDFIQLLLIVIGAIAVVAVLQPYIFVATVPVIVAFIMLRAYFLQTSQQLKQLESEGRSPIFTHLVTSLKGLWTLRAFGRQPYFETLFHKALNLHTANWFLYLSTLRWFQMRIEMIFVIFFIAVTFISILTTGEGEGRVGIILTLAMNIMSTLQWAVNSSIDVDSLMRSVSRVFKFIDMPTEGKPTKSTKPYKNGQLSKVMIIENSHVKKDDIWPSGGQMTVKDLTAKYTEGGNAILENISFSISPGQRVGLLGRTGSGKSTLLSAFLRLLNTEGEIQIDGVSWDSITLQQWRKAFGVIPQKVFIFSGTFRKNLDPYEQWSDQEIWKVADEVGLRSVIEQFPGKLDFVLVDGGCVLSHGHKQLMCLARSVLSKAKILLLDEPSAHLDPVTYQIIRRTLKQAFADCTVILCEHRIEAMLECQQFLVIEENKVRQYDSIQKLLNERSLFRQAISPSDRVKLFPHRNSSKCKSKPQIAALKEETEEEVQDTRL

SMILES | Emax [1] [%] | EC50 [2] [µM] | EC50 [4] [µM] | also measured
Cc1ccccc1-c1nc(NS(=O)(=O)c2cccc(N3[C@@H]4CC[C@H]3[C@@H](C(=O)O)C4)n2)ccc1C(F)(F)F [Example 462, (1S,2S,4R)-7-(6-(N-(6-(o-tolyl)-5-(trifluoromethyl)pyridin-2-yl)sulfamoyl)pyridin-2-yl)-7-azabicyclo[2.2.1]heptane-2-carboxylic Acid] |  |  |  | EC50: 2.93 µM; Emax [3]: 108%
CC1(C(=O)O)CCN(c2cccc(S(=O)(=O)Nc3ccc(C(F)(F)F)c(-c4ccccc4C4CCC4)n3)n2)CC1 [Example 363, 1-(6-(N-(6-(2-cyclobutylphenyl)-5-(trifluoromethyl)pyridin-2-yl)sulfamoyl)pyridin-2-yl)-4-methylpiperidine-4-carboxylic Acid] | 616 | 0.705 |  | 
Cc1ccccc1-c1nc(NS(=O)(=O)c2cccc(N3C[C@H](C(=O)O)CC[C@@H]3C)n2)ccc1C(F)(F)F [Example 464] |  |  | 2.43 | Emax [3]: 816%
CCC1(C(=O)O)CCCN(c2cccc(S(=O)(=O)Nc3ccc(C(F)(F)F)c(-c4ccccc4C)n3)n2)C1 (centres unmarked) [Example 454, 3-ethyl-1-(6-(N-(6-(o-tolyl)-5-(trifluoromethyl)pyridin-2-yl)sulfamoyl)pyridin-2-yl)piperidine-3-carboxylic Acid] |  |  | 1.7 | 
CCC[C@@H]1CCN(c2cccc(S(=O)(=O)Nc3ccc(Cl)c(-c4cccnc4C(C)C)n3)n2)[C@H]2C[C@H](C(=O)O)[C@@H]12 (racemic) [Example 434, rac-(1SR,5RS,6RS,7SR)-2-(6-(N-(3-chloro-2′-isopropyl-[2,3′-bipyridin]-6-yl)sulfamoyl)pyridin-2-yl)-5-propyl-2-azabicyclo[4.2.0]octane-7-carboxylic Acid] |  |  | 2.23 | Emax [3]: 734%
CCc1ccccc1-c1nc(NS(=O)(=O)c2cccc(N3CCC[C@@](C)(C(=O)O)C3)n2)ccc1C(F)(F)F [Example 394, (R)-1-(6-(N-(6-(2-ethylphenyl)-5-(trifluoromethyl)pyridin-2-yl)sulfamoyl)pyridin-2-yl)-3-methylpiperidine-3-carboxylic Acid] |  |  | 1.05 | 
C[C@]1(C(=O)O)CCCN(c2cccc(S(=O)(=O)Nc3ccc(C(F)(F)F)c(-c4ccccc4C4CC4)n3)n2)C1 [Example 429, (S)-1-(6-(N-(6-(2-cyclopropylphenyl)-5-(trifluoromethyl)pyridin-2-yl)sulfamoyl)pyridin-2-yl)-3-methylpiperidine-3-carboxylic Acid] |  |  | 0.838 | Emax [3]: 541%
CC(C)COc1ccccc1-c1nc(NS(=O)(=O)c2cccc(N3CCC[C@@](C)(C(=O)O)C3)n2)ccc1C(F)(F)F [Example 396, (R)-1-(6-(N-(6-(2-isobutoxyphenyl)-5-(trifluoromethyl)pyridin-2-yl)sulfamoyl)pyridin-2-yl)-3-methylpiperidine-3-carboxylic Acid] |  |  | 0.845 | 
Cc1ccccc1-c1nc(NS(=O)(=O)c2cccc(N3C[C@H]4C[C@H]4[C@H]3C(=O)O)n2)ccc1C(F)(F)F [Example 340, (1R,2S,5S)-3-(6-{[6-(2-methylphenyl)-5-(trifluoromethyl)pyridin-2-yl]sulfamoyl}pyridin-2-yl)-3-azabicyclo[3.1.0]hexane-2-carboxylic Acid] | 278 | 2.45 |  | 
CCCc1ccccc1-c1nc(NS(=O)(=O)c2cccc(N3CCC[C@](C)(C(=O)O)C3)n2)ccc1C(F)(F)F [Example 425, (S)-3-methyl-1-(6-(N-(6-(2-propylphenyl)-5-(trifluoromethyl)pyridin-2-yl)sulfamoyl)pyridin-2-yl)piperidine-3-carboxylic Acid] |  |  | 1.22 | 
Cc1ccccc1-c1nc(NS(=O)(=O)c2cccc(N3CCC34CN(C(=O)OC(C)(C)C)C4)n2)ccc1C(F)(F)F [Example 301, tert-butyl 1-(6-(N-(6-(o-tolyl)-5-(trifluoromethyl)pyridin-2-yl)sulfamoyl)pyridin-2-yl)-1,6-diazaspiro[3.3]heptane-6-carboxylate] | 546 | 0.67 |  | 
C[C@@]1(C(=O)O)CCCN(c2cccc(S(=O)(=O)Nc3ccc(C(F)(F)F)c(-c4ccccc4C4CCC4)n3)n2)C1 [Example 383, (R)-1-(6-(N-(6-(2-cyclobutylphenyl)-5-(trifluoromethyl)pyridin-2-yl)sulfamoyl)pyridin-2-yl)-3-methylpiperidine-3-carboxylic Acid] |  |  | 0.498 | 
CCOc1ccccc1-c1nc(NS(=O)(=O)c2cccc(N3CCC[C@@](C)(C(=O)O)C3)n2)ccc1C(F)(F)F [Example 328, (R)-1-(6-(N-(6-(2-ethoxyphenyl)-5-(trifluoromethyl)pyridin-2-yl)sulfamoyl)pyridin-2-yl)-3-methylpiperidine-3-carboxylic Acid] |  | 1.79 |  | 
CC(C)COc1ccccc1-c1nc(NS(=O)(=O)c2cccc(N3CCCC(C)(C(=O)O)C3)n2)ccc1C(F)(F)F (centres unmarked) [Example 386, 1-(6-(N-(6-(2-isobutoxyphenyl)-5-(trifluoromethyl)pyridin-2-yl)sulfamoyl)pyridin-2-yl)-3-methylpiperidine-3-carboxylic Acid] |  |  | 0.605 | 
Cc1ccccc1-c1nc(NS(=O)(=O)c2cccc(N[C@@H]3CCC[C@H](C(=O)O)C3)n2)ccc1C(F)(F)F (relative stereo) [Example 461, (1,3-cis)-3-((6-(N-(6-(o-tolyl)-5-(trifluoromethyl)pyridin-2-yl)sulfamoyl)pyridin-2-yl)amino)cyclohexanecarboxylic Acid] |  |  | 1.95 | Emax [3]: 392%
CC(C)c1ccccc1-c1nc(NS(=O)(=O)c2cccc(N3CCC[C@@H]4[C@@H](C(=O)O)C[C@@H]43)n2)ccc1C(F)(F)F (racemic) [Example 442, rac-(1SR,6RS,7SR)-2-(6-(N-(6-(2-isopropylphenyl)-5-(trifluoromethyl)pyridin-2-yl)sulfamoyl)pyridin-2-yl)-2-azabicyclo[4.2.0]octane-7-carboxylic Acid] |  |  | 1.24 | 
CC(C)c1ccccc1-c1nc(NS(=O)(=O)c2cccc(N3CCC[C@](C)(C(=O)O)C3)n2)ccc1C(F)(F)F [Example 385, (S)-1-(6-(N-(6-(2-isopropylphenyl)-5-(trifluoromethyl)pyridin-2-yl)sulfamoyl)pyridin-2-yl)-3-methylpiperidine-3-carboxylic Acid] |  |  | 0.81 | Emax [3]: 668%
Cc1ccccc1-c1nc(NS(=O)(=O)c2cccc(N3CCC[C@@](C)(C(=O)O)C3)n2)ccc1C1CC1 [Example 411, (R)-1-(6-(N-(5-cyclopropyl-6-(o-tolyl)pyridin-2-yl)sulfamoyl)pyridin-2-yl)-3-methylpiperidine-3-carboxylic Acid] |  |  | 1.39 | Emax [3]: 400%

Continued, in another order:

Emax [1] [%] | EC50 [2] [µM] | EC50 [4] [µM] | SMILES | also measured
305 | 2.35 |  | Nc1ccc(S(=O)(=O)Nc2ccc(Cl)c(-c3ccccc3C3CC3)n2)cn1 [Example 54, 6-amino-N-(5-chloro-6-(2-cyclopropylphenyl)pyridin-2-yl)pyridine-3-sulfonamide] | 
19 | 3.75 |  | Cc1cccc(C)c1-c1nc(NS(=O)(=O)c2cccc(N)n2)c(F)cc1Cl [Example 95, 6-amino-N-(5-chloro-6-(2,6-dimethylphenyl)-3-fluoropyridin-2-yl)pyridine-2-sulfonamide] | 
398 | 2.11 |  | CC(C)c1ccccc1-c1nc(NS(=O)(=O)c2cccc(N)n2)ccc1F [Example 35, 6-amino-N-(5-fluoro-6-(2-isopropylphenyl)pyridin-2-yl)pyridine-2-sulfonamide] | 
 |  | 1.1 | Cc1ccc(Cl)cc1-c1nc(NS(=O)(=O)c2cccc(N3CCC[C@@](C)(C(=O)O)C3)n2)ccc1C(F)(F)F [Example 450, (R)-1-(6-(N-(6-(5-chloro-2-methylphenyl)-5-(trifluoromethyl)pyridin-2-yl)sulfamoyl)pyridin-2-yl)-3-methylpiperidine-3-carboxylic Acid] | 
418 | 1.32 |  | Cc1cccc(F)c1-c1nc(NS(=O)(=O)c2cccc(N)n2)ccc1Cl [Example 31, 6-amino-N-(5-chloro-6-(2-fluoro-6-methylphenyl)pyridin-2-yl)pyridine-2-sulfonamide] | 
430 | 1.72 |  | Nc1cccc(S(=O)(=O)Nc2ccc(Cl)c(-c3ccc(F)cc3C3CC3)n2)n1 [Example 27, 6-amino-N-(5-chloro-6-(2-cyclopropyl-4-fluorophenyl)pyridin-2-yl)pyridine-2-sulfonamide] | 
692 | 1.95 |  | Cc1cccc(C)c1-c1nc(NS(=O)(=O)c2cccc(N3CCn4ccnc4C3)n2)ccc1Cl [Example 198, N-(5-chloro-6-(2,6-dimethylphenyl)pyridin-2-yl)-6-(5,6-dihydroimidazo[1,2-a]pyrazin-7(8H)-yl)pyridine-2-sulfonamide] | 
332 | 1.98 |  | Cc1ccc(C(F)(F)F)cc1-c1nc(NS(=O)(=O)c2cccc(N)n2)ccc1Cl [Example 51, 6-amino-N-(5-chloro-6-(2-methyl-5-(trifluoromethyl)phenyl)pyridin-2-yl)pyridine-2-sulfonamide] | 
 |  | 1.77 | Cc1c(F)cccc1-c1nc(NS(=O)(=O)c2cccc(N3CCC[C@](C)(C(=O)O)C3)n2)ccc1C(F)(F)F [Example 436, (3S)-1-(6-{[6-(3-fluoro-2-methylphenyl)-5-(trifluoromethyl)pyridin-2-yl]sulfamoyl}pyridin-2-yl)-3-methylpiperidine-3-carboxylic Acid] | Emax [3]: 438%
209 | 2.42 |  | Cc1cccc(C)c1-c1cccc(NS(=O)(=O)c2cccc(N)n2)n1 [Example 68, 6-amino-N-(6-(2,6-dimethylphenyl)pyridin-2-yl)pyridine-2-sulfonamide] | 
